Results from patent publication US8357707B2, “2-carboxamide cycloamino ureas” (Novartis AG, priority 2009, dated 2013).

Experiments:
Format in all cases: biochemical
PI3Kβ = target: T1, PI3Kβ (Homo sapiens, UniProt P42338); experiment: PI3K KinaseGlo assay, PI3Kbeta; settings: 25 nM enzyme, 1 μM ATP, 30 mins
T1 construct: His tag (C); made in house; host or cells: Tn5 insect cells, baculovirus BV949 (vector LR280)

PI3Kγ = target: T2, PI3Kγ (Homo sapiens, UniProt P48736, Q459R); experiment: PI3K KinaseGlo assay, PI3Kgamma; settings: 150 nM enzyme, 1 μM ATP, 90 mins
T2 construct: Constructs lacking the N-terminal 144 aa; His tag (C); made in house; host or cells: Tn5 insect cells, baculovirus BV950; construct from the Roger Williams lab (MRC LMB)
T2 sequence (P48736 with tags, fused parts or gaps Q459R): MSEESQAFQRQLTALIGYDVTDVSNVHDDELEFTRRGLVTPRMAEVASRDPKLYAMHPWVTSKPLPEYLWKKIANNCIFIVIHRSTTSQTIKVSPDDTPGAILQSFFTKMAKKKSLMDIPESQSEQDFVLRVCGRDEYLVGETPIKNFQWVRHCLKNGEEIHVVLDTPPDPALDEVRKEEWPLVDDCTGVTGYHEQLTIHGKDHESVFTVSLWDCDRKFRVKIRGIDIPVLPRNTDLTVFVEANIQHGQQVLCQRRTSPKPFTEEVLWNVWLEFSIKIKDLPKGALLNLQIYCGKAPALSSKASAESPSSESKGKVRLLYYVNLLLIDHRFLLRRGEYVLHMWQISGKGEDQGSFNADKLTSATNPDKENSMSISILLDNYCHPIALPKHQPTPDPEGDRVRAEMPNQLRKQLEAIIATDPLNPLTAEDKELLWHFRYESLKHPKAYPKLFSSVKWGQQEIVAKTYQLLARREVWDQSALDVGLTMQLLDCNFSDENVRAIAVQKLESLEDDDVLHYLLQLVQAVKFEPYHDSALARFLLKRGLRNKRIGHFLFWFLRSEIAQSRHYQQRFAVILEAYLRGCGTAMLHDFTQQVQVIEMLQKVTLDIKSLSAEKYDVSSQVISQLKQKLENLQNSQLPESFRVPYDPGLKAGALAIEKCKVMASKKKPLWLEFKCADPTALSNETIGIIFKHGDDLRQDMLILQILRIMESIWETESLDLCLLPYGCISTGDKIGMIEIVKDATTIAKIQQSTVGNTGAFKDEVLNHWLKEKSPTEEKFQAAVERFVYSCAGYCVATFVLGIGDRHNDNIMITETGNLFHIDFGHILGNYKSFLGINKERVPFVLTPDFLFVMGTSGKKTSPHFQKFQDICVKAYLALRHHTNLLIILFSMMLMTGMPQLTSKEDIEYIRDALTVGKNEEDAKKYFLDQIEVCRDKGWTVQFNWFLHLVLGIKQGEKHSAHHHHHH

PI3Kα = target: T3, PI3Kα (Homo sapiens, UniProt P42336); experiment: PI3K KinaseGlo assay, PI3Kalpha; settings: 10 nM enzyme, 1 μM ATP, 30 mins
T3 construct: His tag (C); made in house; host or cells: Tn5 insect cells, baculovirus BV-1075
T3 sequence (P42336 with tags, fused parts or gaps): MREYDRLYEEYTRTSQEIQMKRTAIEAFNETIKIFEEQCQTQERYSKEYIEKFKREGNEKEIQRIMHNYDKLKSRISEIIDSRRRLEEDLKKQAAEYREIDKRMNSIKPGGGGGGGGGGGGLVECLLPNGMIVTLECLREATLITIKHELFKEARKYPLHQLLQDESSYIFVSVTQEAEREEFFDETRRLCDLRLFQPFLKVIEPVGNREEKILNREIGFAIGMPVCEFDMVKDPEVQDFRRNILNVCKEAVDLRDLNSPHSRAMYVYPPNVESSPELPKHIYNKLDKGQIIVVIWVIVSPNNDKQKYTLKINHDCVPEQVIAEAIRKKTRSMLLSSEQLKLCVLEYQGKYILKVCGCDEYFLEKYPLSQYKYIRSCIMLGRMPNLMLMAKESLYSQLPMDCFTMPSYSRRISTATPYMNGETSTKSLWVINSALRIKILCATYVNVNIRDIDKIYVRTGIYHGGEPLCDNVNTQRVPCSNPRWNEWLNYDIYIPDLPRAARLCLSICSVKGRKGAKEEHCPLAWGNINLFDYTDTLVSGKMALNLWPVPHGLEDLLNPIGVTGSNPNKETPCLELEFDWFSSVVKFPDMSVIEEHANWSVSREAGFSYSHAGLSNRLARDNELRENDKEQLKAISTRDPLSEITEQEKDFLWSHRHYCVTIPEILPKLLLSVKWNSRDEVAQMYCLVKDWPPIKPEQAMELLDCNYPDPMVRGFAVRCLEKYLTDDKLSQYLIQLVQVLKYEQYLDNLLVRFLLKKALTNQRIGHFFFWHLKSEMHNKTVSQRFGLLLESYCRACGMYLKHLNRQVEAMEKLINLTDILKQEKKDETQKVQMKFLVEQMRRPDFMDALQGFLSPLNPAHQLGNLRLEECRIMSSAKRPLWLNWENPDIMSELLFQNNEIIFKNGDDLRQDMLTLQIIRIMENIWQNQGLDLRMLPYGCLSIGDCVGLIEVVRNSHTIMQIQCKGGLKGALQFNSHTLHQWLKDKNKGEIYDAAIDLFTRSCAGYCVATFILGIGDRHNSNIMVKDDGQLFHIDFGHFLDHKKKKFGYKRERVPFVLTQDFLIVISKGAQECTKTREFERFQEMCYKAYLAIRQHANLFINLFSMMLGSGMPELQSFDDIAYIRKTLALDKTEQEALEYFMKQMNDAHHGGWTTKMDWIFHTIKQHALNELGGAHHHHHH

PI3Kδ = target: T4, PI3Kδ (Homo sapiens, UniProt O00329); experiment: PI3K KinaseGlo assay, PI3Kdelta; settings: 10 nM enzyme, 1 μM ATP, 30 mins
T4 construct: His tag (C); made in house; host or cells: Tn5 insect cells, baculovirus BV1060 (vector LR415)
T4 sequence (O00329 with tags, fused parts or gaps): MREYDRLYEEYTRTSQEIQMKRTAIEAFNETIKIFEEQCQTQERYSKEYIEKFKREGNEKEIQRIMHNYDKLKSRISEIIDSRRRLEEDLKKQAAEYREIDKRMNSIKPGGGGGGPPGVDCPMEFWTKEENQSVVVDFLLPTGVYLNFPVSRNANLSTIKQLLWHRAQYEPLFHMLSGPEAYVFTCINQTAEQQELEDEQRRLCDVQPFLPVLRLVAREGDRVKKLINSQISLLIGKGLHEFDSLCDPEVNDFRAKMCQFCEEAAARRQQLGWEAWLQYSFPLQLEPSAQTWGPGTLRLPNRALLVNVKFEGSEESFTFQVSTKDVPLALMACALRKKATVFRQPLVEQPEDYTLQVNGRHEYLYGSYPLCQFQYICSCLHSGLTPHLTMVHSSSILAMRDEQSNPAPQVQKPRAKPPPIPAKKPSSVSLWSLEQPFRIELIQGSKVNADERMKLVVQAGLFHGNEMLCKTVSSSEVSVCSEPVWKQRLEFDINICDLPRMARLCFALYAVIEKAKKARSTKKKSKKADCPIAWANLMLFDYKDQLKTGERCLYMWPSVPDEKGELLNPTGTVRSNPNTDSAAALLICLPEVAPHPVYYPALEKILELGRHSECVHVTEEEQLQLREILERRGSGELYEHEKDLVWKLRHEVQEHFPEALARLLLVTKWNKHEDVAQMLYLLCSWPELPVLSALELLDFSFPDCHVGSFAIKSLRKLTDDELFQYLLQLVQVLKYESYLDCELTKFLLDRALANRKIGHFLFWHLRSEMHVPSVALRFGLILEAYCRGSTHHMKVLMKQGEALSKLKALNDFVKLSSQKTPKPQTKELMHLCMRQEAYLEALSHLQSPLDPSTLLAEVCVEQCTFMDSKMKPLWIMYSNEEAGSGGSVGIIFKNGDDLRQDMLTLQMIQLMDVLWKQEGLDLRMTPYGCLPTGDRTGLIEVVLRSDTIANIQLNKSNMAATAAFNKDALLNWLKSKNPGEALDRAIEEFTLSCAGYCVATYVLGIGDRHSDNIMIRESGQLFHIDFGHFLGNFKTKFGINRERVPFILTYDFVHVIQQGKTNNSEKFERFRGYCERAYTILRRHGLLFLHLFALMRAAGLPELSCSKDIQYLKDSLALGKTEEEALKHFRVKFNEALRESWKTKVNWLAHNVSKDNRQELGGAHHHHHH

T1 sequence (P42338 with tags, fused parts or gaps): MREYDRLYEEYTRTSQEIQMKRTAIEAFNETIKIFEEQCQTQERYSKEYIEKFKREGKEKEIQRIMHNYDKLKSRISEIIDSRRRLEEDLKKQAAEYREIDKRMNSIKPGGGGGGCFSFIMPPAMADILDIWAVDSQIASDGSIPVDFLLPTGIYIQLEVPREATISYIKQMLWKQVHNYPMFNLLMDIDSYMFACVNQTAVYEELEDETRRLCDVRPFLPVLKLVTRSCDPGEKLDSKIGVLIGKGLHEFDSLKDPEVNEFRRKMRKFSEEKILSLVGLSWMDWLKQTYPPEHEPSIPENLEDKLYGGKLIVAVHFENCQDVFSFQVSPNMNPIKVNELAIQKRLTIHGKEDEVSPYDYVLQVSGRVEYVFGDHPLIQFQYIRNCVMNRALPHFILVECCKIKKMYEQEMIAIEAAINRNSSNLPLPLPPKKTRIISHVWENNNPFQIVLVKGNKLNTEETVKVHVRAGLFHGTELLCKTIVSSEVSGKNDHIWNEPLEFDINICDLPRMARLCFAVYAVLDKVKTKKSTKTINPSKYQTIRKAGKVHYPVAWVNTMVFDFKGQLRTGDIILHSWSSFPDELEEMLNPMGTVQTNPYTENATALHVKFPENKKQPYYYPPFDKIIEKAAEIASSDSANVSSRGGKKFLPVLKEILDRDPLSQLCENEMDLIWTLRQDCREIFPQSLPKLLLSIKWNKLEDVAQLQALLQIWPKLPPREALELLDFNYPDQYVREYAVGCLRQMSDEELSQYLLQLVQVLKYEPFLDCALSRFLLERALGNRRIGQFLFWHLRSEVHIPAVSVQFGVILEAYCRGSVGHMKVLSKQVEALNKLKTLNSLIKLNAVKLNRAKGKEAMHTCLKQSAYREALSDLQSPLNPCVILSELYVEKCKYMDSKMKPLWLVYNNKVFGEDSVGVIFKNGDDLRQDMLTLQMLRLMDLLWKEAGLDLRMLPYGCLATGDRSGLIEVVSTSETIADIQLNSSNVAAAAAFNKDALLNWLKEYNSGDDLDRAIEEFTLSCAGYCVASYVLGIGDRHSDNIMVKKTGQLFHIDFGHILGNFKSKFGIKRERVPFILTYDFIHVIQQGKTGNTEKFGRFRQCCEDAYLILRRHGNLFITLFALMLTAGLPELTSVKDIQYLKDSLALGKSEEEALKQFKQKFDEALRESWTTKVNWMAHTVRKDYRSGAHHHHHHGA

Row | SMILES | IC50 (PI3Kβ) | IC50 (PI3Kγ) | IC50 (PI3Kα) | IC50 (PI3Kδ)
1 | CCN(CC)c1ncc2c(n1)-c1sc(NC(=O)N3CC[C@H](C)[C@H]3C(N)=O)nc1CC2 [Example 2, (2S,3S)-3-Methyl-pyrrolidine-1,2-dicarboxylic acid 2-amide 1-[(8-diethylamino-4,5-dihydro-thiazolo[4,5-h]quinazolin-2-yl)-amide]] | 332 nM | 90 nM | 5.5 nM | 30 nM
2 | CCN(CC)c1ncc2c(n1)-c1sc(NC(=O)N3CCC[C@@]3(C)C(N)=O)nc1CC2 [Example 4, (S)-2-Methyl-pyrrolidine-1,2-dicarboxylic acid 2-amide 1-[(8-diethylamino-4,5-dihydro-thiazolo[4,5-h]quinazolin-2-yl)-amide]] | 143 nM | 176 nM | 6.5 nM | 220 nM
3 | CCN(CC)c1ncc2c(n1)-c1sc(NC(=O)N3CCC[C@@]3(COC)C(N)=O)nc1CC2 [Example 5, (R)-2-Methoxymethyl-pyrrolidine-1,2-dicarboxylic acid 2-amide 1-[(8-diethylamino-4,5-dihydro-thiazolo[4,5-h]quinazolin-2-yl)-amide]] | 47 nM | 153 nM | 5.5 nM | 46 nM
4 | CCN(CC)c1ncc2c(n1)-c1sc(NC(=O)N3CCC[C@@]3(CO)C(N)=O)nc1CC2 [Example 8, (R)-2-Hydroxymethyl-pyrrolidine-1,2-dicarboxylic acid 2-amide 1-[(8-diethylamino-4,5-dihydro-thiazolo[4,5-h]quinazolin-2-yl)-amide]] | 276 nM | 180 nM | 9.5 nM | 198 nM
5 | CC(C)(C)c1ncc2c(n1)-c1sc(NC(=O)N3CCC[C@@]3(CO)C(N)=O)nc1CC2 [Example 9, (R)-2-Hydroxymethyl-pyrrolidine-1,2-dicarboxylic acid 2-amide 1-[(8-tert-butyl-4,5-dihydro-thiazolo[4,5-h]quinazolin-2-yl)-amide]] | 87 nM | 141 nM | 8.5 nM | 72 nM
6 | CN(Cc1cccc(F)c1)C[C@@]1(C(N)=O)CCCN1C(=O)Nc1nc2c(s1)-c1nc(C(C)(C)C)ncc1CC2 [Example 10, (R)-2-{[(3-Fluoro-benzyl)-methyl-amino]-methyl}-pyrrolidine-1,2-dicarboxylic acid 2-amide 1-[(8-tert-butyl-4,5-dihydro-thiazolo[4,5-h]quinazolin-2-yl)-amide]] | 449 nM | 282 nM | 18 nM | 54 nM
7 | CCN(CC)c1ncc2c(n1)-c1sc(NC(=O)N3CCC[C@H]3C(N)=O)nc1CC2 [Example 12, (S)-Pyrrolidine-1,2-dicarboxylic acid 2-amide 1-[(8-diethylamino-4,5-dihydro-thiazolo[4,5-h]quinazolin-2-yl)-amide]] | 516 nM | 230 nM | 6 nM | 53 nM
8 | CCN(CC)c1ncc2c(n1)-c1sc(NC(=O)N3CC[C@H]3C(N)=O)nc1CC2 [Example 13, (S)-Azetidine-1,2-dicarboxylic acid 2-amide 1-[(8-diethylamino-4,5-dihydro-thiazolo[4,5-h]quinazolin-2-yl)-amide]] | 277 nM | 104 nM | 9 nM | 118 nM
9 | CCN(CC)c1ncc2c(n1)-c1sc(NC(=O)N3C[C@H](F)C[C@H]3C(N)=O)nc1CC2 [Example 16, (2S,4R)-4-Fluoro-pyrrolidine-1,2-dicarboxylic acid 2-amide 1-[(8-diethylamino-4,5-dihydro-thiazolo[4,5-h]quinazolin-2-yl)-amide]] | 297 nM | 74 nM | 5.5 nM | 60 nM
10 | CCN(CC)c1ncc2c(n1)-c1sc(NC(=O)N3C[C@@H](F)C[C@H]3C(N)=O)nc1CC2 [Example 17, (2S,4S)-4-Fluoro-pyrrolidine-1,2-dicarboxylic acid 2-amide 1-[(8-diethylamino-4,5-dihydro-thiazolo[4,5-h]quinazolin-2-yl)-amide]] | 389 nM | 153 nM | 8 nM | 236 nM
11 | CCN(CC)c1ncc2c(n1)-c1sc(NC(=O)N3CC[C@@H]4C[C@@]43C(N)=O)nc1CC2 [Example 19, (1S,5R)-2-Aza-bicyclo[3.1.0]hexane-1,2-dicarboxylic acid 1-amide 2-[(8-diethylamino-4,5-dihydro-thiazolo[4,5-h]quinazolin-2-yl)-amide]] | 588 nM | 123 nM | 5.5 nM | 77 nM

Second part, the molecule after the results:

Row | IC50 (PI3Kβ) | IC50 (PI3Kγ) | IC50 (PI3Kα) | IC50 (PI3Kδ) | SMILES
12 | 519 nM | 237 nM | < 3 nM | 36 nM | CCN(CC)c1ncc2c(n1)-c1sc(NC(=O)N3CC[C@@H](C)[C@H]3C(N)=O)nc1CC2 [Example 21, (2S,3R)-3-Methyl-pyrrolidine-1,2-dicarboxylic acid 2-amide 1-[(8-diethylamino-4,5-dihydro-thiazolo[4,5-h]quinazolin-2-yl)-amide]]
13 | 6900 nM | 262 nM | 23.5 nM | 1900 nM | CCN(CC)c1ncc2c(n1)-c1sc(NC(=O)N3C[C@@H](N(C)C)C[C@H]3C(N)=O)nc1CC2 [Example 22, (2S,4S)-4-Dimethylamino-pyrrolidine-1,2-dicarboxylic acid 2-amide 1-[(8-diethylamino-4,5-dihydro-thiazolo[4,5-h]quinazolin-2-yl)-amide]]
14 | 510 nM | – | 12 nM | 40 nM | CC(=O)NC[C@@H]1CCN(C(=O)Nc2nc3c(s2)-c2nc(C(C)(C)C)ncc2CC3)[C@@H]1C(N)=O [Example 36, (2S,3S)-3-(Acetylamino-methyl)-pyrrolidine-1,2-dicarboxylic acid 2-amide 1-[(8-tert-butyl-4,5-dihydro-thiazolo[4,5-h]quinazolin-2-yl)-amide]]
15 | 182 nM | – | 4 nM | 19 nM | CC(C)(C)c1ncc2c(n1)-c1sc(NC(=O)N3CC[C@@H](CN4CCOCC4)[C@H]3C(N)=O)nc1CC2 [Example 37, (2S,3S)-3-Morpholin-4-ylmethyl-pyrrolidine-1,2-dicarboxylic acid 2-amide 1-[(8-tert-butyl-4,5-dihydro-thiazolo[4,5-h]quinazolin-2-yl)-amide]]
16 | 866 nM | – | 9 nM | 44 nM | CC(C)(C)c1ncc2c(n1)-c1sc(NC(=O)N3CC[C@@H](O)[C@H]3C(N)=O)nc1CC2 [Example 38, (2S,3R)-3-Hydroxy-pyrrolidine-1,2-dicarboxylic acid 2-amide 1-[(8-tert-butyl-4,5-dihydro-thiazolo[4,5-h]quinazolin-2-yl)-amide]]
17 | 3050 nM | – | 24 nM | 496 nM | CC(C)(C)c1nc2c(s1)CCc1nc(NC(=O)N3CC[C@@H](CN4CCOCC4)[C@H]3C(N)=O)sc1-2 [Example 41, (2S,3S)-3-Morpholin-4-ylmethyl-pyrrolidine-1,2-dicarboxylic acid 2-amide 1-[(7-tert-butyl-4,5-dihydro-benzo[1,2-d;3,4-d′]bisthiazol-2-yl)-amide]]
18 | 409 nM | – | 8 nM | 32 nM | COC[C@@H]1CCN(C(=O)Nc2nc3c(s2)-c2nc(C(C)(C)C)ncc2CC3)[C@@H]1C(N)=O [Example 42, (2S,3R)-3-Methoxymethyl-pyrrolidine-1,2-dicarboxylic acid 2-amide 1-[(8-tert-butyl-4,5-dihydro-thiazolo[4,5-h]quinazolin-2-yl)-amide]]
19 | 61 nM | – | 6.5 nM | 24 nM | COC[C@@H]1CCN(C(=O)Nc2nc3c(s2)-c2nc(C(C)(C)C(F)(F)F)ncc2CC3)[C@@H]1C(N)=O [Example 45, (2S,3R)-3-Methoxymethyl-pyrrolidine-1,2-dicarboxylic acid 2-amide 1-{[8-(2,2,2-trifluoro-1,1-dimethyl-ethyl)-4,5-dihydro-thiazolo[4,5-h]quinazolin-2-yl]-amide}]
20 | 1150 nM | – | 5.5 nM | 157 nM | C[C@@H]1CCN(C(=O)Nc2nc3c(s2)-c2cc(C(C)(C)C)ncc2OC3)[C@@H]1C(N)=O [Example 46, (2S,3R)-3-Methyl-pyrrolidine-1,2-dicarboxylic acid 2-amide 1-[(8-tert-butyl-4H-5-oxa-1-thia-3,7-diaza-cyclopenta[a]naphthalen-2-yl)-amide]]
21 | 6170 nM | – | 3 nM | 1620 nM | CN(C)C[C@@H]1CCN(C(=O)Nc2nc3c(s2)-c2cc(C(C)(C)C)ncc2OC3)[C@@H]1C(N)=O [Example 47, (2S,3S)-3-Dimethylaminomethyl-pyrrolidine-1,2-dicarboxylic acid 2-amide 1-[(8-tert-butyl-4H-5-oxa-1-thia-3,7-diaza-cyclopenta[a]naphthalen-2-yl)-amide]]
22 | 920 nM | – | 6 nM | 19 nM | C[C@@H]1CCN(C(=O)Nc2nc3c(s2)-c2cc(C(C)(C)C(F)(F)F)ncc2OC3)[C@@H]1C(N)=O [Example 48, (2S,3R)-3-Methyl-pyrrolidine-1,2-dicarboxylic acid 2-amide 1-{[8-(2,2,2-trifluoro-1,1-dimethyl-ethyl)-4H-5-oxa-1-thia-3,7-diaza-cyclopenta[a]naphthalen-2-yl]-amide}]
23 | 555 nM | – | 9 nM | 113 nM | COC[C@@H]1CCN(C(=O)Nc2nc3c(s2)-c2nc(C(C)(C)C(F)(F)F)sc2CC3)[C@@H]1C(N)=O [Example 50, (2S,3R)-3-Methoxymethyl-pyrrolidine-1,2-dicarboxylic acid 2-amide 1-{[7-(2,2,2-trifluoro-1,1-dimethyl-ethyl)-4,5-dihydro-benzo[1,2-d;3,4-d′]bisthiazol-2-yl]-amide}]
